The numbers were not newly measured in patent US20230020217A1, “HEPES-CONTAINING MEDIUM” (AJINOMOTO CO., INC., priority 2020, published 2023), which cites them from elsewhere.

The conditions of the data set: when exposed to light for a long time (Zigler et al. 1985).

For `O=S(=O)(O)CCN1CCN(CCO)CC1` [HEPES, 4-(2-hydroxyethyl)-1-piperazineethanesulfonic acid], the toxicity entry is recorded as “toxicity derived from hydrogen peroxide”.
